Reference: US5955500A (G. D. Searle & Co., priority 1997, dated 1999)
Values joined by “and” are separate entries in the source; they are usually repeats but may differ in a detail not shown here. Equal entries are not always repeated. Where two headings read alike, the source gives them in different places.

Experiments:
[1] = test system: canine heart; details: for AH time / Heart rate / Mean arterial pressure: mean ± SE
Experimental: Fourteen adult mongrel dogs of either sex weighing between 19 and 25 kg were prepared for chronic electrophysiologic investigation by implanting epicardial electrodes and an indwelling aortic catheter. The dogs were fasted overnight and initially anesthetized with halothane on the day of surgery. After tracheal intubation, anesthesia was maintained with isoflurane and oxygen via positive pressure ventilation to keep end tidal carbon dioxide within the normal range. Muscular relaxation was induced by pancuronium. A right thoracotomy was performed in the fifth intercostal space. Three bipolar electrode pairs were sutured to the epicardial surface of the right atrial appendage and on the right and left ventricular apex (FIG. 5). A bipolar electrode was sutured to the right atrium close to the anatomical region of the sinoatrial node. A bipolar plunge electrode was placed into base of the interventricular septum to record a His bundle electrogram. An indwelling arterial catheter was placed into the aorta through the left femoral artery after surgical exposure of the artery at the inner side of the hind limb. All electrode leads were subcutaneously tunneled and exited through the skin between the scapulae. Incisions were closed in anatomic fashion and standard postoperative methods of analgesia were provided with 0.015 mg/kg of buprenorphine (Buprenex®, Reckitt & Colman, Hull, UK) and two times of 25 mg/kg cefazolin (Cefazolin Sodium®, SoloPak Laboratories, Elk Groove Village, Ill.) and dogs were allowed to recover from surgery for a period of seven days prior to testing.
Electrical signals from the bipolar electrodes, after suitable amplification in a custom built preamplifier (gain 1000), were filtered in a separate custom designed and built common mode rejection amplifier with a bandpass filter of 10-1000 Hz and individually adjusted for signal strength (maximal gain 400). […] Right atrial appendage (RA), right ventricular apex (RVA) and His bundle electrograms (HB) were recorded, simultaneously. […] All measurements of conduction times were made during spontaneous sinus rhythm.
The His bundle electrode (HBE) was advanced into the base of the interatrial septum from the aortic root. The electrode was advanced from a point located just behind and to the right of the origin of the right coronary artery. The HBE was slowly advanced parallel to the aorta, inferiorly and slightly anteriorly until a well discernible His potential was recorded. AV conduction (AH) interval was measured as the time difference (ms) between the onset of the initial rapid deflection in the RA electrogram to the beginning of the His potential in the HB electrogram. His-ventricular (HV) conduction time interval (ms) was measured from the beginning of the His potential (HBE) to the initial deflection of the QRS complex wave (earliest left ventricular activation) in a simultaneously recorded surface ECG lead II.
As an indicator of automaticity, sinus node recovery time (SNRT) was determined by pacing the right atrial appendage (30 s at 180 and 200 beats/min at 2 msec pulse duration; 2×threshold). SNRT was measured from the last pacing spike to the first spontaneous atrial activity on the His bundle electrogram after cessation of pacing (ms).
A timed extrastimulus (S2) was delivered 300 ms after the preceding pacing spike (S1).
Verapamil was dissolved in 5% dextrose and water ([…]).
During the postoperative period, each dog was trained to stand quietly in a sling during electrophysiological monitoring. Prior to measurement, electrical signals in each dog were monitored to verify the absence of spontaneous arrhythmias other-than normal respiratory sinus arrhythmias.
From the resting dog, 5 channel records were obtained at a sampling rate of 1 kHz per channel for 7 min to determine the following conduction intervals: AH, HV, QRS, QT and HR. A corrected QT interval [QTc=QT interval in ms/ (R-R interval in s)^1/2 ] was also calculated.

[2] = for Concentration in octanol / Concentration in water: pH 5, individual replicates
[3] = test system: isolated working rat heart; details: S 100 ng/ml plus R 50-950 ng/ml cumulative
[4] = test system: isolated working rat heart
[5] = S 100 ng/ml, R 950 ng/ml, R/S ratio 9.5

COc1ccc(CCN(C)CCCC(C#N)(c2ccc(OC)c(OC)c2)C(C)C)cc1OC (racemic) [20/80S]
AH time ([1]; 0.1 mg/kg i.v., 0 min): 88 ± 5 ms
Heart rate ([1]; 0.1 mg/kg i.v., 0 min): 155 ± 13 beats per min
Mean arterial pressure ([1]; 0.1 mg/kg i.v., 0 min): 92 ± 4 mmHg
AH time ([1]; 0.1 mg/kg i.v., 1 min): 100 ± 5 ms
Heart rate ([1]; 0.1 mg/kg i.v., 1 min): 143 ± 11 beats per min
Mean arterial pressure ([1]; 0.1 mg/kg i.v., 1 min): 97 ± 3 mmHg
AH time ([1]; 0.1 mg/kg i.v., 2 min): 106 ± 5 ms
Heart rate ([1]; 0.1 mg/kg i.v., 2 min): 127 ± 10 beats per min
Mean arterial pressure ([1]; 0.1 mg/kg i.v., 2 min): 100 ± 3 mmHg
AH time ([1]; 0.1 mg/kg i.v., 3 min): 107 ± 5 ms
Heart rate ([1]; 0.1 mg/kg i.v., 3 min): 124 ± 9 beats per min
Mean arterial pressure ([1]; 0.1 mg/kg i.v., 3 min): 100 ± 4 mmHg
AH time ([1]; 0.1 mg/kg i.v., 4 min): 111 ± 6 ms
Heart rate ([1]; 0.1 mg/kg i.v., 4 min): 113 ± 11 beats per min
Mean arterial pressure ([1]; 0.1 mg/kg i.v., 4 min): 99 ± 4 mmHg
AH time ([1]; 0.1 mg/kg i.v., 5 min): 112 ± 5 ms
Heart rate ([1]; 0.1 mg/kg i.v., 5 min): 111 ± 8 beats per min
Mean arterial pressure ([1]; 0.1 mg/kg i.v., 5 min): 101 ± 4 mmHg
AH time ([1]; 0.2 mg/kg i.v., 0 min): 110 ± 10 ms
Heart rate ([1]; 0.2 mg/kg i.v., 0 min): 168 ± 10 beats per min
Mean arterial pressure ([1]; 0.2 mg/kg i.v., 0 min): 84 ± 3 mmHg
AH time ([1]; 0.2 mg/kg i.v., 1 min): 126 ± 11 ms
Heart rate ([1]; 0.2 mg/kg i.v., 1 min): 166 ± 9 beats per min
Mean arterial pressure ([1]; 0.2 mg/kg i.v., 1 min): 87 ± 4 mmHg
AH time ([1]; 0.2 mg/kg i.v., 2 min): 133 ± 10 ms
Heart rate ([1]; 0.2 mg/kg i.v., 2 min): 154 ± 8 beats per min
Mean arterial pressure ([1]; 0.2 mg/kg i.v., 2 min): 93 ± 5 mmHg
AH time ([1]; 0.2 mg/kg i.v., 3 min): 140 ± 12 ms
Heart rate ([1]; 0.2 mg/kg i.v., 3 min): 141 ± 11 beats per min
Mean arterial pressure ([1]; 0.2 mg/kg i.v., 3 min): 94 ± 5 mmHg
AH time ([1]; 0.2 mg/kg i.v., 4 min): 127 ± 14 ms
Heart rate ([1]; 0.2 mg/kg i.v., 4 min): 155 ± 16 beats per min
Mean arterial pressure ([1]; 0.2 mg/kg i.v., 4 min): 97 ± 5 mmHg
AH time ([1]; 0.2 mg/kg i.v., 5 min): 130 ± 11 ms
Heart rate ([1]; 0.2 mg/kg i.v., 5 min): 146 ± 4 beats per min
Mean arterial pressure ([1]; 0.2 mg/kg i.v., 5 min): 98 ± 3 mmHg
Occurrence of AV conduction block ([1]; 0.2 mg/kg i.v., listed as 20R/80S-verapamil): 5 animals
Occurrence of second and third degree AV conduction block ([1]; 0.4 mg/kg i.v., listed as 20R/80S-verapamil): all
Recovery of the decrease in MAP ([1]; compared with any other groups): slower
Peak effect on HR, in words ([1]; dog, in vivo): drastic increase in HR
QTc interval compared with 100R-verapamil, in words ([1]; dog, in vivo): significantly increased compared with 100R-verapamil
Interaction between MAP and HR (multiple linear regression), in words ([1]; increase in HR against drop in MAP): greatest rate of increase in HR as opposed to a drop in MAP
Eutectic compound identification (phase diagram based on Po/w) ([2]; pH 5): eutectic compound
Concentration in octanol ([2]; listed as 80): 4160 ng/mL and 4490 ng/mL and 3810 ng/mL
Concentration in water ([2]; listed as 80): 6950 ng/mL and 6930 ng/mL and 6920 ng/mL

COc1ccc(CCN(C)CCCC(C#N)(c2ccc(OC)c(OC)c2)C(C)C)cc1OC (racemic) [R/S (0.5)]
Cardiac output (CO), significance vs predrug [3]: n.s.
Heart rate (HR), significance vs predrug [3]: n.s.

COc1ccc(CCN(C)CCCC(C#N)(c2ccc(OC)c(OC)c2)C(C)C)cc1OC (racemic) [R/S (2.0)]
Cardiac output (CO), significance vs predrug [3]: n.s.
Heart rate (HR), significance vs predrug [3]: n.s.
Peak systolic pressure (PSP), significance vs predrug [3]: n.s.

COc1ccc(CCN(C)CCCC(C#N)(c2ccc(OC)c(OC)c2)C(C)C)cc1OC (racemic) [R/S (4.5)]
Heart rate (HR), significance vs predrug [3]: n.s.
Peak systolic pressure (PSP), significance vs predrug [3]: n.s.

COc1ccc(CCN(C)CCCC(C#N)(c2ccc(OC)c(OC)c2)C(C)C)cc1OC (racemic) [R/S (9.5)]
Effect of mixture on heart rate, in words ([4]; R/S ratio 9.5): additive
Peak systolic pressure (PSP), significance vs predrug [4, 5]: n.s.

COc1ccc(CCN(C)CCC[C@@](C#N)(c2ccc(OC)c(OC)c2)C(C)C)cc1OC [S-verapamil, reference compound]
Reduction of peak systolic pressure and cardiac output, in words ([4]; S 100 ng/ml vs R 950 ng/ml): more effective at reducing peak systolic pressure (FIG. 2b) as well as cardiac output
Nature of cardiac effect (inotropic / chronotropic) ([4]; S 100 ng/ml, R 950 ng/ml): primarily an inotropic drug
Heart rate (HR), significance vs predrug [4, 5]: n.s.
Concentration in octanol ([2]; listed as 100): 5150 ng/mL and 5290 ng/mL and 5530 ng/mL
Concentration in water ([2]; listed as 100): 4080 ng/mL and 4880 ng/mL and 6220 ng/mL
